Measured values published in ChEMBL document CHEMBL1128215, “Introduction of a conformational switching element on a pyrrolidine ring. Synthesis and evaluation of (R*,R*)-(+/-)-methyl 3-acetyl-4-[3- (cyclopentyloxy)-4-methoxyphenyl]-3-methyl-1-pyrrolidinecarboxylate, a potent and selective inhibitor of cAMP-specific phosphodiesterase” (J Med Chem, 1995).

What was measured:
[1] = molecular target: Phosphodiesterase 4 (Homo sapiens, UniProt P27815+Q08499+Q07343+Q08493); assay: Inhibition of cAMP hydrolysis by human Phosphodiesterase 4; assay type: protein assay
[2] = molecular target: Phosphodiesterase 6; assay: Inhibition of Phosphodiesterase 6 from bovine retina; assay type: protein assay, Bos taurus
[3] = molecular target: Phosphodiesterase 1 (Bos taurus, UniProt Q01061+P14100); assay: Inhibition of Phosphodiesterase 1 from bovine aorta; assay type: protein assay
[4] = molecular target: Phosphodiesterase 3 (Homo sapiens, UniProt Q14432+Q13370); assay: Inhibition of Phosphodiesterase 3 from human pulmonary artery; assay type: tissue-based
[5] = molecular target: High affinity 3',5'-cyclic-AMP phosphodiesterase 7A (Homo sapiens, UniProt Q13946); assay: Inhibition of human Phosphodiesterase 7
[6] = molecular target: cGMP-specific 3',5'-cyclic phosphodiesterase (Homo sapiens, UniProt O76074); assay: Inhibition of Phosphodiesterase 5 isolated from human trachea; assay type: tissue-based
[7] = molecular target: T1, cGMP-dependent 3',5'-cyclic phosphodiesterase (Bos taurus, UniProt P14099); assay: Inhibition of bovine Phosphodiesterase 2
T1 sequence (P14099 whole entry): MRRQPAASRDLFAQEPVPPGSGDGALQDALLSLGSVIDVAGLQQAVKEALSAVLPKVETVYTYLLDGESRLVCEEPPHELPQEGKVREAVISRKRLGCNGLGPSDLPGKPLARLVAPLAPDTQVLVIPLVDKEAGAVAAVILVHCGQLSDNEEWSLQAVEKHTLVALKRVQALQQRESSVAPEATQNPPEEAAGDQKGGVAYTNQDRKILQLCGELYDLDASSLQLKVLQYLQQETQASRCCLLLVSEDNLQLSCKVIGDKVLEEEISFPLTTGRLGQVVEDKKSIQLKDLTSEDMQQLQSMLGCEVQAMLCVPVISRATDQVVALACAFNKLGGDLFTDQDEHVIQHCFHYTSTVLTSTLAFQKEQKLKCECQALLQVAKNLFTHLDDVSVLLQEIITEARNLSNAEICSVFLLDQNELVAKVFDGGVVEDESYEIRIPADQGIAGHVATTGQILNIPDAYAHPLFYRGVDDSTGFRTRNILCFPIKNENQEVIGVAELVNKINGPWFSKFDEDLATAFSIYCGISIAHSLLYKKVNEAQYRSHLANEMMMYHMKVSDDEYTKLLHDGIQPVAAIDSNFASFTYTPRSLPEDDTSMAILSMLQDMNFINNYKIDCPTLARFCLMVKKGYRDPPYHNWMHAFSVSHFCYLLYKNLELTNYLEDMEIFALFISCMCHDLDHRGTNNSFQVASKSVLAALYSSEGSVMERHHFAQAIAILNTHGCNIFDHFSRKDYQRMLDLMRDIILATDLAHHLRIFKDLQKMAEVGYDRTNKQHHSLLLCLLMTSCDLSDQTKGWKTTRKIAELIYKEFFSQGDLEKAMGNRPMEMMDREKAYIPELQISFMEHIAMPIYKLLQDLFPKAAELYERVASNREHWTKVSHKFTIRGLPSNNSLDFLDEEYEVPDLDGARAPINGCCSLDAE

Chain of High affinity 3',5'-cyclic-AMP phosphodiesterase 7A (Q13946 whole entry): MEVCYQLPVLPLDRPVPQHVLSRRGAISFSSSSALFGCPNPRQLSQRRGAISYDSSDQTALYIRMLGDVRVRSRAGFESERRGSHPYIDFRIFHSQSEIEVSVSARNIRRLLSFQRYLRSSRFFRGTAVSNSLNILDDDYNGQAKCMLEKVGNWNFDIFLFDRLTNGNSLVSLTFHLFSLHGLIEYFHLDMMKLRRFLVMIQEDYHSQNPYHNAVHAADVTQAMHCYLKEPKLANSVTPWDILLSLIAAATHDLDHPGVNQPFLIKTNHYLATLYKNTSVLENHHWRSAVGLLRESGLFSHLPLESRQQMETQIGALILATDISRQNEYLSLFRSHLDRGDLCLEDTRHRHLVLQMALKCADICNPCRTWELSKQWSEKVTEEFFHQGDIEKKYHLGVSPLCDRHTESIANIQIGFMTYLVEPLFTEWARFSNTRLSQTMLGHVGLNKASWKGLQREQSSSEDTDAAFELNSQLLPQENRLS

| SMILES | Ki [1] | further results |
| --- | --- | --- |
| COC(=O)N1C[C@@H](c2ccc(OC)c(OC3CCCC3)c2)[C@](C)(C(C)=O)C1 | 1 nM | Ki [2]: > 100000 nM; Ki [3]: > 100000 nM; Ki [4]: > 100000 nM; Ki [5]: 7900 nM; Ki [6]: > 100000 nM; Ki [7]: > 100000 nM |
| COC(=O)N1C[C@@H](C(C)=O)[C@H](c2ccc(OC)c(OC3CCCC3)c2)C1 | 33 nM |  |
| CC[C@@]1(C(C)=O)CN(C(=O)OC)C[C@H]1c1ccc(OC)c(OC2CCCC2)c1 | 10 nM |  |
| COC(=O)N1C[C@@H](CO)[C@H](c2ccc(OC)c(OC3CCCC3)c2)C1 | 224 nM |  |
| COC(=O)N1CC[C@H](c2ccc(OC)c(OC3CCCC3)c2)C1 | 110 nM |  |
| CCOC(=O)[C@]1(C)CN(C(=O)OC)C[C@H]1c1ccc(OC)c(OC2CCCC2)c1 | 86 nM |  |
| COC(=O)N1C[C@H](C)[C@H](c2ccc(OC)c(OC3CCCC3)c2)C1 | 100 nM |  |

Second part, led by results:

| Ki [1] | SMILES | further results |
| --- | --- | --- |
| 3 nM | COC(=O)N1C[C@@H](c2ccc(OC)c(OC3CCCC3)c2)[C@](C)(C(=O)OC)C1 |  |
| 37 nM | COC(=O)N1C[C@@H](c2ccc(OC)c(OC3CCCC3)c2)[C@](C)(CO)C1 |  |
| 159 nM | COC(=O)[C@@H]1CN(C(=O)OC)C[C@H]1c1ccc(OC)c(OC2CCCC2)c1 |  |
| 550 nM | CCOC(=O)[C@@H]1CN(C(=O)OC)C[C@H]1c1ccc(OC)c(OC2CCCC2)c1 |  |
